The results in this text go back to PMC12040169 (PLOS Biology, 2025).

The data set can be described thus: in vitro. The note with it: human, hela cells, % viability.
For `Cc1ccc(Cl)cc1NC(=O)c1ccc(NCCN2C(=O)C3C4C=CC(C4)C3C2=O)c([N+](=O)[O-])c1` (centres unmarked) [CBK268357], the viability at 28.5 h, 10 µM was determined as 92.2%.
Next, `O=C(CCn1c(=O)oc2ccccc21)Nc1ccc(S(=O)(=O)N2CCCCC2)cc1` [CBK268365]: 82%; `CC(=O)NCCc1nc2cc(NC(=O)c3ccc([N+](=O)[O-])cc3)ccc2n1C` [CBK268368]: 117%.
In the case of `Cc1ccc(Cl)cc1NC(=O)c1cc(NC(=O)C2CCCCC2C(=O)O)ccc1N1CCCCC1` (centres unmarked) [CBK268371] it was 87%; in that of `O=S(=O)(Cc1ccc(Cl)cc1)NCCCn1ccnc1` [CBK268372], 106%.
On to `Cc1ccc(S(=O)(=O)NC(C)(C)CSc2nnc[nH]2)cc1` [CBK268374], for which the viability at 28.5 h, 10 µM is 81.5%.
In the case of `Cc1cc(=O)n2c3ccccc3n(CC(O)CN3CCN(C(c4ccccc4)c4ccccc4)CC3)c2c1C#N` (centres unmarked) [CBK268375] it was 89.8%; in that of `Cc1ccc([N+](=O)[O-])cc1NC(=O)CSc1nnc(-c2ccco2)o1` [CBK268378], 117%; in that of `CS(=O)(=O)Nc1ccc(C(=O)Nc2ccc(S(=O)(=O)N3CCOCC3)cc2)cc1` [CBK268379], 117%.
On to `O=C(CSCc1c(F)cccc1Cl)NCc1ccncc1` [CBK268381], for which the viability at 28.5 h, 10 µM is 87.1%.
On to `CC(=O)Nc1ccc(S(=O)(=O)Nc2cc(C)c(-n3nc4ccccc4n3)cc2O)cc1` [CBK268382], for which the viability at 28.5 h, 10 µM amounted to 81.2%.
In the case of `Cc1nn2c(-c3cccc(NC(=O)CN4CCOCC4)c3)nnc2c2ccccc12` [CBK268383] it was 84.3%.
In the case of `O=C(CSc1ccc(Cl)cc1)NNC(=O)c1cccc([N+](=O)[O-])c1` [CBK268384] it was 93.5%; in that of `COc1ccccc1NC(=O)CSCc1nc2ccccc2[nH]1` [CBK268385], 105%.
On to `O=C(NCCN1CCOCC1)NCC12CC3CC(C1)CC(c1ccccc1)(C3)C2` [CBK268388], for which the viability at 28.5 h, 10 µM is 89.1%.
In the case of `O=S(=O)(c1ccc(NC(=S)NCc2cccnc2)cc1)N1CCOCC1` [CBK268396] it was 72.8%.
In the case of `O=C(O)c1cc(S(=O)(=O)N2CCOCC2)ccc1F` [CBK268398] it was 106%; in that of `CSc1nc2ccc(S(=O)(=O)N3CCCC3)cc2s1` [CBK268400], 104%; in that of `COc1ccc(OC)c(Nc2nc(NCC3CCCO3)c3ccccc3n2)c1` (centres unmarked) [CBK268403C], 90.9%.
For the molecule `Cn1c(CN2CCCCC2)nc2cc(NS(=O)(=O)c3ccc(Cl)cc3)ccc21` [CBK268404], the viability at 28.5 h, 10 µM worked out at 82.8%.
As for `Nn1c(SCc2cc(=O)[nH]c3ccccc23)nnc1C(O)c1ccccc1` (centres unmarked) [CBK268405], the viability at 28.5 h, 10 µM was determined as 99.2%.
Turning to `Cc1cccc(-c2nc(=S)c3c(n2CCCN(C)C)CCCC3)c1` [CBK268406], the viability at 28.5 h, 10 µM was determined as 102%.
Next, `O=C(NCCc1ccccc1)c1ccccc1NS(=O)(=O)N1CCCC1` [CBK268407]: 80.5%; `O=[N+]([O-])c1ccc(N2CCN(Cc3c(O)ccc4ccccc34)CC2)cc1NCc1ccccc1` [CBK268408]: 105%.
Take `CCOC(=O)c1ccc(-c2ccc(/C=C/c3nn4cnnc4c(O)c3[N+](=O)[O-])o2)cc1` [CBK268409]: the viability at 28.5 h, 10 µM stood at 107%.
In the case of `COc1ccc(Cl)cc1NC(=O)CSc1nc2cc3ccccc3cc2[nH]1` [CBK268410] it was 82.1%.
Next, `O=C(COc1ccc(S(=O)(=O)N2CCCC2)cc1Cl)NCc1ccccn1` [CBK268412]: 91.3%; `O=C(O)CCN1C(=O)c2ccc(NC(=O)c3ccccc3Cl)cc2C1=O` [CBK268413]: 83.7%; `Cc1ccc(Nc2c([N+](=O)[O-])nn(-c3ccccc3)[n+]2[O-])cc1F` [CBK268414]: 102%.
Turning to `Cn1c(CCN2CCOCC2)nc2cc(NC(=O)c3cccs3)ccc21` [CBK268415], the viability at 28.5 h, 10 µM was 97.9%.
Consider `COc1ccc(NC(=O)CSCc2cc(O)[nH]n2)cc1` [CBK268417], for which the viability at 28.5 h, 10 µM was 99.3%.
In the case of `c1nc(NCCN2CCOCC2)c2c3c(sc2n1)CCCCC3` [CBK268418], the viability at 28.5 h, 10 µM is 103%.
Next, `O=C(O)COc1ccc(S(=O)(=O)N2CCCCC2)cc1Cl` [CBK268419]: 105%; `CC(C)(C)NC(=O)COc1ccc(CNCc2ccccn2)cc1` [CBK268420C]: 95.5%; `CC(C)(C)c1ccc(OCc2nnc(S)n2N)cc1` [CBK268421]: 89.1%.
Next, `O=C(CSc1oc(-c2ccco2)nc1S(=O)(=O)c1ccccc1)c1ccccc1` [CBK268424]: 96.9%; `CN(CC(=O)O)S(=O)(=O)c1cccc2cccc(Cl)c12` [CBK268433]: 107%; `COC(=O)Nc1ncc(CN2C(=O)c3ccccc3C2=O)s1` [CBK268434]: 111%.
Next, `O=C(CSCc1ccc(Br)cc1)NCc1ccccn1` [CBK268435]: 102%; `Cn1c(CCNC(=O)C2CCCCC2)nc2cc([N+](=O)[O-])ccc21` [CBK268440]: 106%.
In the case of `Fc1cc(Cl)ccc1NC(=S)NCCN1CCOCC1` [CBK268441], the viability at 28.5 h, 10 µM was 98.4%.
Consider `O=C(O)COc1ccc(S(=O)(=O)Nc2ccc(F)cc2)cc1` [CBK268442], for which the viability at 28.5 h, 10 µM worked out at 105%.
Turning to `COCCN1C(=O)c2ccc(C(=O)Nc3cc(C(=O)O)cc(C(=O)O)c3)cc2C1=O` [CBK268444], the viability at 28.5 h, 10 µM was determined as 96.5%.
Next, `CN(CC(=O)O)S(=O)(=O)c1ccc(F)c2ccccc12` [CBK268447]: 98.5%; `CCC(=O)Nc1nc(-c2ccc(C(=O)OC)cc2)nc2c1c(=O)oc1ccccc12` [CBK268449]: 110%; `CN(C)S(=O)(=O)c1ccc(C(=O)Nc2ccc3ncn(C)c(=O)c3c2)cc1` [CBK268450]: 103%.
In the case of `CN1CCN(C(=O)COc2ccc(S(=O)(=O)Nc3ccc(F)cc3)cc2)CC1` [CBK268454] it was 94.5%; in that of `Cc1ccc(Nc2nc(CSc3nnc(-c4ccccc4)o3)cs2)cc1` [CBK268455], 99.7%; in that of `CCOc1cc(C2Nc3ccccc3NC3=C2C(=O)C(C(=O)OC)C(C)C3)ccc1OC(C)C` (centres unmarked) [CBK268456], 111%.
Take `O=C1c2ccc(-c3nc4ccc(Cl)cc4c(=O)o3)cc2C(=O)N1Cc1cccnc1` [CBK268460]: the viability at 28.5 h, 10 µM stood at 104%.
In the case of `O=C1c2ccccc2C(=O)N1Cc1nc2ccccc2c(=O)n1CCCN1CCOCC1` [CBK268463] it was 96.1%.
For `CC(C)C(CCC(=O)Nc1ccc([N+](=O)[O-])cc1O)C(=O)O` (centres unmarked) [CBK268464], the viability at 28.5 h, 10 µM was 102%.
Next, `Cc1nn(CC(=O)Nc2ccc3c(c2)nc(CN2CCCC2)n3C)c(=O)c2ccccc12` [CBK268465]: 97.5%; `CN1C(CC(O)c2ccccc2)CCCC1C(=O)c1ccccc1` (centres unmarked) [CBK268467C]: 98.8%; `O=C(CN1CCOCC1)Nc1ccc(S(=O)(=O)N2CCCC2)cc1` [CBK268468]: 103%.
For `CCOC(=O)CC(=O)CSc1nc2nc(C)cc(C)n2n1` [CBK268469], the viability at 28.5 h, 10 µM stood at 99.8%.
In the case of `COc1cc(NC(=O)C(C)Oc2cccc(Cl)c2)c(C(=O)O)cc1OC` (centres unmarked) [CBK268470] it was 92.4%; in that of `O=C1c2ccccc2C(=O)N1Cc1nc2ccccc2c(=O)n1CCN1CCOCC1` [CBK268472], 105%; in that of `Cn1c(CN2CCN(C(=O)c3ccco3)CC2)nc2cc([N+](=O)[O-])ccc21` [CBK268473], 108%.
Next, `CCc1nnc2sc(-c3ccc(C)c(NC(=O)c4ccc(N5CCCCC5)c([N+](=O)[O-])c4)c3)nn12` [CBK268476]: 91.5%.
In the case of `O=C1COc2ccc(S(=O)(=O)NCCOc3ccccc3)cc2N1` [CBK268480] it was 95.9%; in that of `S=C(NNC(=S)Nc1ccc(Cl)c(Cl)c1)Nc1cccnc1` [CBK268483], 96.2%.
In the case of `O=[N+]([O-])c1cccc(S(=O)(=O)NCCOc2cccc3cccnc23)c1` [CBK268489], the viability at 28.5 h, 10 µM amounted to 98.6%.
In the case of `CS(=O)(=O)N1CCCC(C(=O)Nc2ccc(S(N)(=O)=O)cc2)C1` (centres unmarked) [CBK268490] it was 83%.
In the case of `CCCC12CN3CC(C)(CN(C1)C31C(=O)Nc3ccc(C)cc31)C2=O` (centres unmarked) [CBK268491] it was 113%; in that of `Cc1ccc(CSCCNS(=O)(=O)c2ccc([N+](=O)[O-])cc2)cc1` [CBK268496], 108%.
Next, `O=C(CSCc1c(F)cccc1Cl)Nc1ccc(S(=O)(=O)N2CCCCCC2)cc1` [CBK268497]: 100%.
With `O=C(O)c1ccc(-n2nnnc2Sc2nc([N+](=O)[O-])nn2Cc2ccccc2F)cc1` [CBK268498], the viability at 28.5 h, 10 µM was 91.5%.
`Clc1ccc(-n2c(COc3cccc4cccnc34)nnc2SCc2ccccc2)cc1` [CBK268502]: the viability at 28.5 h, 10 µM was 103%.
In the case of `O=[N+]([O-])c1nn(-c2ccccc2)[n+]([O-])c1Nc1ccc(Br)cc1` [CBK268504] it was 98.7%.
Next, `O=C(Cc1cccs1)Nc1cccc(C(=O)Nc2cccc(C(=O)O)c2)c1` [CBK268509]: 105%; `CC(C)(CSc1ccccn1)NS(=O)(=O)c1ccccc1` [CBK268513]: 102%.
Next, `Cc1c(C(N)=O)sc2ncn(CC(=O)NCCc3ccccc3)c(=O)c12` [CBK268514]: 90.4%; `CCn1c(SCC(=O)Nc2ccc(C(C)=O)cc2)nnc1-c1cc(Br)ccc1O` [CBK268515]: 89.2%; `O=C(COc1ccc(S(=O)(=O)N2CCCCC2)cc1)NCc1ccccn1` [CBK268517]: 91.6%.
For `CN(C)S(=O)(=O)c1ccc2[nH]cc(CCN)c2c1` [CBK268522C], the viability at 28.5 h, 10 µM was determined as 99.7%.
Next, `O=C(O)CC(C(=O)O)c1ccc(Cl)cc1Cl` (centres unmarked) [CBK268523]: 95.5%.

The term viability denotes a read-out of living cells in per cent, often relative to untreated cells.
